Source: ChEMBL document CHEMBL5113515, “The Discovery of GSK3640254, a Next-Generation Inhibitor of HIV-1 Maturation” (J Med Chem, 2022)

Key:
[1] = test system: Human immunodeficiency virus 1; assay: Antiviral activity against HIV1 wild type NL (4 to 3) infected in human MT2 cells measured after 4 to 5 days in presence of human serum by dual-luciferase reporter assay; type: functional, organism-based; details: mt2
[2] = AUC in rat at 5 mg/kg, po; type: ADME, organism-based; set-up: dose 5 mg/kg, route po; details: in vivo
[3] = test system: Human immunodeficiency virus 1; assay: Antiviral activity against HIV1 wild type subtype B NL (4 to 3) transfected in human HEK293T cells by dual-luciferase reporter assay; type: functional, organism-based; details: Human immunodeficiency virus 1, HEK-293T
[4] = Half life in overnight fasted Beagle dog at 1 mg/kg, iv; type: ADME, organism-based, Canis lupus familiaris; details: in vivo
[5] = Half life in overnight fasted cynomolgus monkey at 1 mg/kg, iv; type: ADME, organism-based, Macaca fascicularis; details: in vivo
[6] = Volume of distribution at steady state in overnight fasted Sprague-Dawley rat at 5 mg/kg, po or 1 mg/kg, iv; type: ADME, organism-based; details: in vivo
[7] = Volume of distribution at steady state in overnight fasted Beagle dog at 2 mg/kg, po or 1 mg/kg, iv; type: ADME, organism-based, Canis lupus familiaris; details: in vivo
[8] = Oral bioavailability in overnight fasted cynomolgus monkey using spray-dried dispersion at 2 mg/kg; type: ADME, organism-based, Macaca fascicularis; details: in vivo
[9] = AUC(0 to t) in overnight fasted mouse at 5 mg/kg, po or 1 mg/kg, iv; type: ADME, organism-based; set-up: dose 5 mg/kg, route po; details: in vivo
[10] = AUC(0 to t) in overnight fasted cynomolgus monkey at 2 mg/kg, po or 1 mg/kg, iv; type: ADME, organism-based, Macaca fascicularis; set-up: dose 2 mg/kg, route po; details: in vivo
[11] = Cmax in overnight fasted mouse at 5 mg/kg, po or 1 mg/kg, iv; type: ADME, organism-based; set-up: dose 5 mg/kg, route po; details: in vivo
[12] = Cmax in overnight fasted Beagle dog at 2 mg/kg, po or 1 mg/kg, iv; type: ADME, organism-based, Canis lupus familiaris; set-up: dose 2 mg/kg, route po; details: in vivo
[13] = Metabolic stability in mouse liver microsomes assessed as half life in presence of NADPH at 0.5 uM by LC-MS/MS analysis; type: ADME, Microsome
[14] = Metabolic stability in cynomolgus monkey liver microsomes assessed as half life in presence of NADPH at 0.5 uM by LC-MS/MS analysis; type: ADME, Macaca fascicularis, Microsome
Cytochrome P450 1A2 = target: T1, Cytochrome P450 1A2 (Homo sapiens, UniProt P05177); assay: Inhibition of CYP1A2 (unknown origin); type: ADME
T1 sequence (P05177 whole entry): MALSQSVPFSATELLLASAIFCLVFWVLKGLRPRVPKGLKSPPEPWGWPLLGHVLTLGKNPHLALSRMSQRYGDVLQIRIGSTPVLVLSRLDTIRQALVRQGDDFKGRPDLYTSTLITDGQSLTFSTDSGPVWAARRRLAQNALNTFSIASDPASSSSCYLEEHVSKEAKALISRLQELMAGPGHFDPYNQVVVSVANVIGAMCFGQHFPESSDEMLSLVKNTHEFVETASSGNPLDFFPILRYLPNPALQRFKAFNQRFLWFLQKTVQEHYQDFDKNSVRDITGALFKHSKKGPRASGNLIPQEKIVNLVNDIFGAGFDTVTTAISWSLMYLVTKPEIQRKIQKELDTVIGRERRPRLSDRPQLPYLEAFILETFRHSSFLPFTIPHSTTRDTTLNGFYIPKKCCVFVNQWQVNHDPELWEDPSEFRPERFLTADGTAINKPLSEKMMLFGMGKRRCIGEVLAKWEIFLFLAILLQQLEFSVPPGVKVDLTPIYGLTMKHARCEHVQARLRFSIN

Cytochrome P450 3A4 = Cytochrome P450 3A4 (Homo sapiens, UniProt P08684); assay: Inhibition of CYP3A4 (unknown origin); type: ADME
[15] = Lipophilicity, log D of the compound at pH 6.5; type: physicochemical; details: buffer
CYP1A2 = target: T2, CYP1A2 (Homo sapiens, UniProt P05177); assay: Induction of CYP1A2 in human hepatocyte; type: ADME, cell-based; details: hepatocytes
T2 sequence (P05177 whole entry): T1 sequence (P05177 whole entry)

[16] = Half life in human liver microsomes at […] measured upto 300 mins by LC-MS/MS analysis; type: ADME, Microsome
[17] = target: T3, UDP-glucuronosyltransferase 1A1 (Homo sapiens, UniProt P22309); assay: Inhibition of UGT1A1(unknown origin)
T3 sequence (P22309 whole entry): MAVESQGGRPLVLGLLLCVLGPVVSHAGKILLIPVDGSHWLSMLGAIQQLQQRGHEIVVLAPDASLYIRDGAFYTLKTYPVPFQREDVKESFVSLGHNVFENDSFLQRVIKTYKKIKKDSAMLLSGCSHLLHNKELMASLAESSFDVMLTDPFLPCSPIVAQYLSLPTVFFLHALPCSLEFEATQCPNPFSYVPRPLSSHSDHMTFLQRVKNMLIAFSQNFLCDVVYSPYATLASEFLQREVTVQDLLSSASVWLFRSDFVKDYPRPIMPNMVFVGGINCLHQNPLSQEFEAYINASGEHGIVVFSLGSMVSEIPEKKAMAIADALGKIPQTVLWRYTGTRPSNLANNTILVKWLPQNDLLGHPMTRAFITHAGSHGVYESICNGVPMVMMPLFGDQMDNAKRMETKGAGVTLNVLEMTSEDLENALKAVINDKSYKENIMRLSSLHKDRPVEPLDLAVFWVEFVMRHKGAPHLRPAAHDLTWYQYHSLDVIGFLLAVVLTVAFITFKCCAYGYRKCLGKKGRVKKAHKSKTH

Sequence of Cytochrome P450 3A4 (P08684 whole entry): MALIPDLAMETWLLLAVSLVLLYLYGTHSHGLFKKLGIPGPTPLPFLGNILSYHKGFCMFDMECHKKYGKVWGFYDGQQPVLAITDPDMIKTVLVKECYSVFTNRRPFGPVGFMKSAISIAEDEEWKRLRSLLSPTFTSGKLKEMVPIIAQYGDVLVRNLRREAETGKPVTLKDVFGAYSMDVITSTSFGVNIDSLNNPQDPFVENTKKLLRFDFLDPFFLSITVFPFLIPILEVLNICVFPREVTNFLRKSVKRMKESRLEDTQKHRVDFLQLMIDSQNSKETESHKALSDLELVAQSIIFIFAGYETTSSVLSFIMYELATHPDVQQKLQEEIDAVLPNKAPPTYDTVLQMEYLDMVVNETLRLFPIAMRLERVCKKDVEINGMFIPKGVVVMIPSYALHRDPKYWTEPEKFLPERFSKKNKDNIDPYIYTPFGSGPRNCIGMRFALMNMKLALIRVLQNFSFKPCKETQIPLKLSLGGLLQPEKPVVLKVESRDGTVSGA

C=C(C)[C@@H]1CC[C@]2(NCCN3CCS(=O)(=O)CC3)CC[C@]3(C)[C@H](CC[C@@H]4[C@@]5(C)CC=C(C6=CC[C@@](CF)(C(=O)O)CC6)C(C)(C)[C@@H]5CC[C@]43C)[C@@H]12 [FIPRAVIRIMAT]
EC50 [1]: 0.0139 µM | AUC [2]: 7.368 µM·h | EC50 [3]: 0.0019 µM | half-life [4]: 18.7 h | half-life [5]: 5.3 h | Vdss [6]: 1.8 L/kg | Vdss [7]: 0.49 L/kg | bioavailability [8]: 28% | AUC(0-t) [9]: 29.9 µM·h | AUC(0-t) [10]: 7.6 µM·h | Cmax [11]: 2.7 µM | Cmax [12]: 4.3 µM | half-life at 0.5 µM [13]: > 2 h | half-life at 0.5 µM [14]: 0.467 h | IC50 (Cytochrome P450 1A2): > 13.3 µM | IC50 (Cytochrome P450 3A4): > 13.3 µM | logD [15]: 4.9 | EC50 (CYP1A2): > 5 µM | half-life [16]: > 24 h | IC50 [17]: 3.9 µM
